Results published in ChEMBL document CHEMBL5291721, “A preclinical secondary pharmacology resource illuminates target-adverse drug reaction associations of marketed drugs” (Nat Commun, 2023).

Legend:
Thromboxane A2 receptor [1] = target: T1, Thromboxane A2 receptor (Homo sapiens, UniProt P21731); format: functional, cell-based
T1 sequence (P21731 whole entry): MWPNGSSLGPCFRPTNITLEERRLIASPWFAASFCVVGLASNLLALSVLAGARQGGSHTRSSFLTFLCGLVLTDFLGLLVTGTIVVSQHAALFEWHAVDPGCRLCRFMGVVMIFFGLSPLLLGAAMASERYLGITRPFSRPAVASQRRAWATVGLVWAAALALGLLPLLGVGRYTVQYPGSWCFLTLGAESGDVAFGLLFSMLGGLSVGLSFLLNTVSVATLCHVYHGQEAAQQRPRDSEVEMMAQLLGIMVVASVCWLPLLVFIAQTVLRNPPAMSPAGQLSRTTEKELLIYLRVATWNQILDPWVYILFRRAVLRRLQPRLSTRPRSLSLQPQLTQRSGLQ

[2] = target: T2, 5-hydroxytryptamine receptor 1A (Homo sapiens, UniProt P08908)
T2 sequence (P08908 whole entry): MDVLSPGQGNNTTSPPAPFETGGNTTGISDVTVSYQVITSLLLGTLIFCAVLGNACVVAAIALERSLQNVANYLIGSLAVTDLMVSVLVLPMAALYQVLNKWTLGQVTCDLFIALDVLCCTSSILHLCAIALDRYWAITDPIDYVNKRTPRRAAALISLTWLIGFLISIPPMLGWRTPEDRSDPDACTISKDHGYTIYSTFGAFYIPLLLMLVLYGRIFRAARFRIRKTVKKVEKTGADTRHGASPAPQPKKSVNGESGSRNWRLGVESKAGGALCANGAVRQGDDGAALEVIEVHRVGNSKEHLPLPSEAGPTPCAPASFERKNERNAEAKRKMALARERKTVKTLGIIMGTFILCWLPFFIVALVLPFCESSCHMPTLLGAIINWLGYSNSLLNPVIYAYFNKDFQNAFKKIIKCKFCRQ

Acetylcholinesterase = Acetylcholinesterase (Homo sapiens, UniProt P22303); format: functional
Chain of Acetylcholinesterase (P22303 whole entry): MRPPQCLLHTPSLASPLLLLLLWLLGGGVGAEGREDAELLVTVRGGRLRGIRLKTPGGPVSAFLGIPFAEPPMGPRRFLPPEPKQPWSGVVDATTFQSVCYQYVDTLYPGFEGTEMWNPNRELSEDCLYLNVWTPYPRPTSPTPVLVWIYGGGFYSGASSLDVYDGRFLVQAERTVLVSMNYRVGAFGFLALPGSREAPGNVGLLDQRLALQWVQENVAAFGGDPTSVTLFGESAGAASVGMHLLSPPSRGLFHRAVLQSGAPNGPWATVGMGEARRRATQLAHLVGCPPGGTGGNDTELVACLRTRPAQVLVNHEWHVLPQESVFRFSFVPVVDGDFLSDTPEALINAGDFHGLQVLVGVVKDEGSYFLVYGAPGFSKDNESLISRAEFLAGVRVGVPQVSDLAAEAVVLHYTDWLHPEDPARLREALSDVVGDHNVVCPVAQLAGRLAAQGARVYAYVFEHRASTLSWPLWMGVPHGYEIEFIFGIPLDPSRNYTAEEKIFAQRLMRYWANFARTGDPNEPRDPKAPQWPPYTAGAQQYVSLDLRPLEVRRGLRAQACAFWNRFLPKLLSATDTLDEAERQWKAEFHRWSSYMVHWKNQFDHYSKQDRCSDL

[3] = target: 5-hydroxytryptamine receptor 2B (Homo sapiens, UniProt P41595); format: functional, cell-based
Chain of 5-hydroxytryptamine receptor 2B (P41595 whole entry): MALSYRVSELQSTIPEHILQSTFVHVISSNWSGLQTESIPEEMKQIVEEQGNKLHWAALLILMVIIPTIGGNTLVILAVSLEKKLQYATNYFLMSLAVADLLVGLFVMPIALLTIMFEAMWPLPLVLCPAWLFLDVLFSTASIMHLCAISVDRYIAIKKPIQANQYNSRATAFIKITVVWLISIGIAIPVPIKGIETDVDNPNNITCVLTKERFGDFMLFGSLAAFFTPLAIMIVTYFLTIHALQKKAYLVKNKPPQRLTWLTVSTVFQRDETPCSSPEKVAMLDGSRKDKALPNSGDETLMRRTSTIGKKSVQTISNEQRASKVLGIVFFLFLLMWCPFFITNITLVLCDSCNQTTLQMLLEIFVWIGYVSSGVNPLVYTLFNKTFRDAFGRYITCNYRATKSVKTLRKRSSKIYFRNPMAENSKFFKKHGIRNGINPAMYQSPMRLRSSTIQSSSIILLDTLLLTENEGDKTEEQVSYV

[4] = target: T3, Prostaglandin G/H synthase 1 (Homo sapiens, UniProt P23219); format: functional
T3 sequence (P23219 whole entry): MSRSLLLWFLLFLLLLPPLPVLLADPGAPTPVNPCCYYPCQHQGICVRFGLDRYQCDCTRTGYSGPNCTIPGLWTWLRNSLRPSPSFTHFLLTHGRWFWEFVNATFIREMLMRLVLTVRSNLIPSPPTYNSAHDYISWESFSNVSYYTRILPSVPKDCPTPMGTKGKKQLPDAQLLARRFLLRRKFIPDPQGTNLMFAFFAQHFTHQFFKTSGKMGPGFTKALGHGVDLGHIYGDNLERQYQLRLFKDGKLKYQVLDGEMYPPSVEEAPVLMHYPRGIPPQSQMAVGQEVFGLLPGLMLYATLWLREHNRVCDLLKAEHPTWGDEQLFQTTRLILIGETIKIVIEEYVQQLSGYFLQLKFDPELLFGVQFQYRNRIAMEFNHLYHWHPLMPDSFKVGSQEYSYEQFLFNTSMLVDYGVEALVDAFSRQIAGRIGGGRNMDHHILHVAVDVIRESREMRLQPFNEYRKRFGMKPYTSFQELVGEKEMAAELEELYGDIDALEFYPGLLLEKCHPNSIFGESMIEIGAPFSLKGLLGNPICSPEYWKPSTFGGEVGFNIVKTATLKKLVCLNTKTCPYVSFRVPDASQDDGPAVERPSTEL

D(3) dopamine receptor = D(3) dopamine receptor (Homo sapiens, UniProt P35462)
Chain of D(3) dopamine receptor (P35462 whole entry): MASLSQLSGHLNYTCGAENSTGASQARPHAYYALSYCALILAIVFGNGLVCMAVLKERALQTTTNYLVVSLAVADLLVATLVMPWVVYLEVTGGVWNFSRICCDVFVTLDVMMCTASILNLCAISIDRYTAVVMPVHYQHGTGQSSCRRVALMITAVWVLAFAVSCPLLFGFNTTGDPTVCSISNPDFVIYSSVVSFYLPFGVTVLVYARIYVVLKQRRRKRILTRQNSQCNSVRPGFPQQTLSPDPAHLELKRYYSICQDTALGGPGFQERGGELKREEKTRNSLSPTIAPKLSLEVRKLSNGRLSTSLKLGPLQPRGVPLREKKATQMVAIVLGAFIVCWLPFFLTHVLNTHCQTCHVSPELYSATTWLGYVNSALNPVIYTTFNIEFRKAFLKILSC

D(1A) dopamine receptor = D(1A) dopamine receptor (Homo sapiens, UniProt P21728)
[5] = target: T4, Amine oxidase [flavin-containing] A (Homo sapiens, UniProt P21397); format: functional
T4 sequence (P21397 whole entry): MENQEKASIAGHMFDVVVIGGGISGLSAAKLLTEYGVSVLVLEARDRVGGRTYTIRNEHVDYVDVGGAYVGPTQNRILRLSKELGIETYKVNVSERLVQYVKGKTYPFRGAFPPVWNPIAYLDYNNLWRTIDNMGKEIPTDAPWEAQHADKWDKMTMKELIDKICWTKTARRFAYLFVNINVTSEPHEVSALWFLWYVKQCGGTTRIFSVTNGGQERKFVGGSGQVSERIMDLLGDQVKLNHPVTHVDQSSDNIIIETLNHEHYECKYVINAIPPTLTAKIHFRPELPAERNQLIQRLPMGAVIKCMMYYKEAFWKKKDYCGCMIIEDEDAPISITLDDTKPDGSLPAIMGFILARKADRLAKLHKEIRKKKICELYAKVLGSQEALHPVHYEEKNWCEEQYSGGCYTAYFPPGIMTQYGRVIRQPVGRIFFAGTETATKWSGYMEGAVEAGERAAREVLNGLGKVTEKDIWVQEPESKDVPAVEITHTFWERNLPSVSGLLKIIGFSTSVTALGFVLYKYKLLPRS

[6] = target: T5, Alpha-2A adrenergic receptor (Homo sapiens, UniProt P08913)
T5 sequence (P08913 whole entry): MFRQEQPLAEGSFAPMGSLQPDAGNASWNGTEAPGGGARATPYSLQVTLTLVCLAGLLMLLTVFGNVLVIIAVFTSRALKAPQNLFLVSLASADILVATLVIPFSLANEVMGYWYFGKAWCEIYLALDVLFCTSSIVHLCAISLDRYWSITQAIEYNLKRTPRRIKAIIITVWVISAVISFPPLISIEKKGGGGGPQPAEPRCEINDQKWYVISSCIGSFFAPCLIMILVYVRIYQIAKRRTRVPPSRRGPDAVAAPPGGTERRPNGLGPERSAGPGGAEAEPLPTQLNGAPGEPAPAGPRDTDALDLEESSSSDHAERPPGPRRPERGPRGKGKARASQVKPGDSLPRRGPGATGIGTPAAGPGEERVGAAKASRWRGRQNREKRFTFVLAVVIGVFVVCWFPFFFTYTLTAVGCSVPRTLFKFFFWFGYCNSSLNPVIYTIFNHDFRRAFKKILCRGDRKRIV

[7] = target: Sodium-dependent dopamine transporter (Homo sapiens, UniProt Q01959)
Chain of Sodium-dependent dopamine transporter (Q01959 whole entry): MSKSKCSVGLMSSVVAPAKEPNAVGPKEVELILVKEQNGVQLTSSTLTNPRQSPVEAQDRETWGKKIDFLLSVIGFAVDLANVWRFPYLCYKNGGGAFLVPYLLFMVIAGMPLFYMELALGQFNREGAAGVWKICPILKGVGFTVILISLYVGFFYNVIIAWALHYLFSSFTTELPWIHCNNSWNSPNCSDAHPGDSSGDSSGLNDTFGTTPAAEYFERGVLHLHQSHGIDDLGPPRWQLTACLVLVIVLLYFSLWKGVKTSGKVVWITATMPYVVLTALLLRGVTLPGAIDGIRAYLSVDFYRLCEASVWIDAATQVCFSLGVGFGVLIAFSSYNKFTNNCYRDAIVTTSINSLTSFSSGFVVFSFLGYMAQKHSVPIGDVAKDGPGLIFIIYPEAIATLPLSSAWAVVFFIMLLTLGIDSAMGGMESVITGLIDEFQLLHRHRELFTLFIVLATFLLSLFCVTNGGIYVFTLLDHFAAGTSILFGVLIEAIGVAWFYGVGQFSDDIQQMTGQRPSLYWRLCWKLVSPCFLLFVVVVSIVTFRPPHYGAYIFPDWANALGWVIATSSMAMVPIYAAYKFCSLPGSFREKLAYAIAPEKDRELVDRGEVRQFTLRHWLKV

Mu-type opioid receptor = Mu-type opioid receptor (Homo sapiens, UniProt P35372)
Chain of Mu-type opioid receptor (P35372 whole entry): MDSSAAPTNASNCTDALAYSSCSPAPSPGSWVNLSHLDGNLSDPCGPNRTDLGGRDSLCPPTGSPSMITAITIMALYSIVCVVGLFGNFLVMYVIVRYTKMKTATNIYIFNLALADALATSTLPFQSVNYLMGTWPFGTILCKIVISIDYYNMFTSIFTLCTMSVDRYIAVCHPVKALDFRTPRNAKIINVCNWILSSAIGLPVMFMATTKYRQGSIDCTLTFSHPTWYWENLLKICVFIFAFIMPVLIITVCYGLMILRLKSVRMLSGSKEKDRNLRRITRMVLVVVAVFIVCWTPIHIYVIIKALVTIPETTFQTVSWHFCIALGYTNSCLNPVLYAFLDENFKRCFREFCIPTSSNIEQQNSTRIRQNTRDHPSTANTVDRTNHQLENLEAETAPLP

[8] = target: 3',5'-cyclic-AMP phosphodiesterase 4A (Homo sapiens, UniProt P27815); format: functional
[9] = target: cGMP-inhibited 3',5'-cyclic phosphodiesterase 3A (Homo sapiens, UniProt Q14432); format: functional
Chain of cGMP-inhibited 3',5'-cyclic phosphodiesterase 3A (Q14432 whole entry): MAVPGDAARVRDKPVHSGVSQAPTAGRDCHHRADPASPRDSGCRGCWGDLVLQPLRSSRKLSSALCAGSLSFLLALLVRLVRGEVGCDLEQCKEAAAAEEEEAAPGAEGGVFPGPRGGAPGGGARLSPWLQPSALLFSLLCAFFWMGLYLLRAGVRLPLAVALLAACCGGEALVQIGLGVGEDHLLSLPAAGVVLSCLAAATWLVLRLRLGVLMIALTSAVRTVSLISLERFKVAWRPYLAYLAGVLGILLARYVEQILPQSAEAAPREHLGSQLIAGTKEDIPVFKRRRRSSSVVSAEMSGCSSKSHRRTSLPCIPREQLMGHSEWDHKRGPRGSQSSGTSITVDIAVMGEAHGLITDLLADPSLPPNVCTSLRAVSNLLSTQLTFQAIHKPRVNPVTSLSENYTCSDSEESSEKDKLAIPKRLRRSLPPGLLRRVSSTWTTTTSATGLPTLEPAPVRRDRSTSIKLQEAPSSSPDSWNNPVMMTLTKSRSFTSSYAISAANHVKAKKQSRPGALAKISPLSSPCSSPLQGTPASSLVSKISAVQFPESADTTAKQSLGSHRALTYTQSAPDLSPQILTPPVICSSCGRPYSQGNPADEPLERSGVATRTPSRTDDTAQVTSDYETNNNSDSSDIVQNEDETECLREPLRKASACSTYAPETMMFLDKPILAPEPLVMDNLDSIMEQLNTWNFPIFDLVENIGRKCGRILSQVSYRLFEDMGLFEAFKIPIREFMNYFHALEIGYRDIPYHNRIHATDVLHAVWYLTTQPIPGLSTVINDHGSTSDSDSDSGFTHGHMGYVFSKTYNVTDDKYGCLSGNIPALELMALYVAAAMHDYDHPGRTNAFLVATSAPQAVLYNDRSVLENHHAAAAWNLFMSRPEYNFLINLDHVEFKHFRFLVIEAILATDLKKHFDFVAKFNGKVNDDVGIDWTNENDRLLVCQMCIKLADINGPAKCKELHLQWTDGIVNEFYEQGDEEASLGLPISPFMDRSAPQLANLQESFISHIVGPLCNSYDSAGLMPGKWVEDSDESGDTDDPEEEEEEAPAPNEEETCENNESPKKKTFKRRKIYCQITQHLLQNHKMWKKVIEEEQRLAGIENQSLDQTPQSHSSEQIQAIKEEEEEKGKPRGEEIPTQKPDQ

[10] = target: T3, Prostaglandin G/H synthase 1; format: functional; remark: listed apart in the source
[11] = target: Sodium-dependent noradrenaline transporter (Homo sapiens, UniProt P23975)
Chain of Sodium-dependent noradrenaline transporter (P23975 whole entry): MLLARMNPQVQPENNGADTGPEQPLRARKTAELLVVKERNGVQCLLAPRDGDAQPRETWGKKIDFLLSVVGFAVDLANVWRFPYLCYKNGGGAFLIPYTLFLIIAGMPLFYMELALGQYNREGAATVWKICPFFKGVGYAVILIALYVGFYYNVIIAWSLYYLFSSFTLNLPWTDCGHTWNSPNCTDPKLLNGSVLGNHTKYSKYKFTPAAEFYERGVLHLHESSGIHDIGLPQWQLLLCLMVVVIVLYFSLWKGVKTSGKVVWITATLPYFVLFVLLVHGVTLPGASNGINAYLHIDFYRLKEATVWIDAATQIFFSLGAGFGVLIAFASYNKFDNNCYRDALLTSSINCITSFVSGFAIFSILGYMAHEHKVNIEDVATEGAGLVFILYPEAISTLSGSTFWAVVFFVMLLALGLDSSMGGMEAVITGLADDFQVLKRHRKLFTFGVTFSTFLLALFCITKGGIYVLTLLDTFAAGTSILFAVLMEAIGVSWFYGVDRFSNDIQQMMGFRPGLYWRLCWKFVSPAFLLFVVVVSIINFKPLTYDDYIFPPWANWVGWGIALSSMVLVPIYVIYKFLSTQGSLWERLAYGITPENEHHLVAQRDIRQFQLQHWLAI

Prothrombin = Prothrombin (Homo sapiens, UniProt P00734); format: functional
Thromboxane A2 receptor [12] = target: T1, Thromboxane A2 receptor; format: functional, cell-based; remark: listed apart in the source
Further: assay procedure not described here.

Row | Compound | AC50 (Thromboxane A2 receptor [1]) | AC50 [2] | AC50 (Acetylcholinesterase) | AC50 [3] | AC50 [4] | AC50 (D(3) dopamine receptor) | AC50 (D(1A) dopamine receptor) | AC50 [5] | AC50 [6] | AC50 [7] | AC50 (Mu-type opioid receptor) | AC50 [8] | AC50 [9] | AC50 [10] | AC50 [11] | AC50 (Prothrombin) | AC50 (Thromboxane A2 receptor [12])
1 | CC1(C)O[C@@H]2C[C@H]3[C@@H]4CCC5=CC(=O)CC[C@]5(C)[C@@]4(F)[C@@H](O)C[C@]3(C)[C@]2(C(=O)CCl)O1 [HALCINONIDE] | > 30 µM | > 30 µM | > 30 µM | > 30 µM | > 30 µM | > 30 µM | > 30 µM | > 30 µM | > 30 µM | > 30 µM | > 30 µM | > 30 µM | > 30 µM | > 30 µM | > 30 µM | > 30 µM | > 30 µM
2 | N=C(N)NCc1cccc([123I])c1 [IOBENGUANE I 123] | > 30 µM | 2.49 µM | > 30 µM | > 30 µM | > 30 µM | 8.17 µM | 13.4 µM | 26.4 µM | 0.488 µM | 6.39 µM | 22 µM | > 30 µM | > 30 µM | > 30 µM | 8.75 µM | > 30 µM | > 30 µM
3 | CC(C)(N)C(=O)N[C@H](Cc1c[nH]c2ccccc12)C(=O)N[C@H](Cc1c[nH]c2ccccc12)NC=O [MACIMORELIN] | > 30 µM | > 30 µM | > 30 µM | > 30 µM | > 30 µM | > 30 µM | > 30 µM | > 30 µM | > 30 µM | > 30 µM | 0.75 µM | > 30 µM | > 30 µM | > 30 µM | > 30 µM | > 30 µM | > 30 µM
4 | C=C1c2c(Cl)ccc(O)c2C(=O)C2=C(O)[C@]3(O)C(=O)C(C(N)=O)=C(O)[C@@H](N(C)C)[C@@H]3[C@@H](O)[C@H]12 [MECLOCYCLINE] | > 30 µM | > 30 µM | > 30 µM | > 30 µM | > 30 µM | > 30 µM | > 30 µM | > 30 µM | > 30 µM | > 30 µM | > 30 µM | > 30 µM | > 30 µM | > 30 µM | > 30 µM | > 30 µM | > 30 µM
5 | Cc1cc2c(OCC(O)CNC(C)C)cccc2[nH]1 (stereo not given) [MEPINDOLOL] | > 30 µM | 0.0041 µM | > 30 µM | > 30 µM | 15.2 µM | 19.9 µM | > 30 µM | > 30 µM | 12.3 µM | > 30 µM | 21 µM | > 30 µM | > 30 µM | 10.9 µM | 5.31 µM | > 30 µM | > 30 µM
